The source of these data is publication PMC10812672, “Short Antimicrobial Peptide Derived from the Venom Gland Transcriptome of Pamphobeteus verdolaga Increases Gentamicin Susceptibility of Multidrug-Resistant Klebsiella pneumoniae” (Antibiotics, 2023).

The test system of assay [1] is K. pneumoniae ATCC® BAA-1705. Format: cell-based, Klebsiella pneumoniae. How it is done: (§1) The nine AMPs identified in the initial screening were evaluated at concentrations between 1.56–200 µM, against E. coli ATCC® 25922, S. aureus ATCC® 29213, E. faecalis ATCC® 49532, P. aeruginosa ATCC® 9027, and K. pneumoniae ATCC® BAA-1705 (Supplementary Figures S2–S6). […] Only PvAMP66 and PvAMP172 reached the MBC for S. aureus at 50 µM and 100 µM, respectively (Table 2).
The evaluation of the antimicrobial activity of the peptides was conducted using the CLSI’s broth microdilution method for bacterial susceptibility testing. For the screening phase, peptides were evaluated at a single 30 μM concentration, in triplicate and in three independent assays, against the E. coli ATCC® 8739, E. coli ATCC® 25922, S. aureus ATCC® 6538, or S. aureus ATCC® 29213 reference USP and CLSI strains. […] Following this, the bacteria were suspended in Mueller-Hinton broth up to a concentration of approximately 1.50 × 10^8 CFU/mL, as measured by optical density at 600 nm between 0.06 to 0.11 (0.5 McFarland standard), in a Multiskan SkyHigh spectrophotometer (ThermoFisher Scientific, Waltham, MA, USA). […] The plate was incubated for 24 h at 37 °C (BE 500, Memmert GmbH, Büchenbach, Germany) and optical density was measured at 600 nm in a Multiskan SkyHigh spectrophotometer (ThermoFisher Scientific, Waltham, MI, USA). […]

A further assay deals with E. coli ATCC® 25922. Format: cell-based, Escherichia coli. As to the method:
as §1
The evaluation of the antimicrobial activity of the peptides was conducted using the CLSI’s broth microdilution method for bacterial susceptibility testing. For the screening phase, peptides were evaluated at a single 30 μM concentration, in triplicate and in three independent assays, against the E. coli ATCC® 8739, E. coli ATCC® 25922, S. aureus ATCC® 6538, or S. aureus ATCC® 29213 reference USP and CLSI strains. For the determination of MIC, MBC, or IC50, peptides or antibiotics were evaluated in concentrations between 1.56–200 µM. These evaluations were conducted in triplicate and in three independent assays, against the E. coli ATCC® 25922, S. aureus ATCC® 29213, E. faecalis ATCC® 49532, P. aeruginosa ATCC® 9027, and K. pneumoniae ATCC® BAA-1705, or the clinically isolated MDR strain. In detail, 1 mL of a glycerol stock solution of the ATCC® or clinically isolated bacterial strain was added to 9 mL of Mueller-Hinton Broth and incubated for 18 h, 180 rpm and 37 °C (Incubator 1000, Heidolph Instruments, Schwabach, Germany). After the incubation, 1 mL of the previous solution was transferred to a new recipient containing 9 mL of fresh Mueller-Hinton broth and incubated for 4 h, 180 rpm and 37 °C (Incubator 1000, Heidolph Instruments, Schwabach, Germany). During the second incubation, the peptides or the antibiotics were dissolved in PBS pH 7.20 in concentrations between 19.53–2500 µM (MC5 Micro Balance, Sartorius AG, Göttingen, Germany). An amount of 10 µL of either peptide or antibiotic was dispensed in triplicate in 96-well flat bottom culture plates, along with 10 µL of PBS (Negative activity control), BTM-P1 (Positive activity control), or 10 µL of Mueller-Hinton broth (Blank); then, 110 µL of Mueller-Hinton broth was poured in all wells. Following this, the bacteria were suspended in Mueller-Hinton broth up to a concentration of approximately 1.50 × 10^8 CFU/mL, as measured by optical density at 600 nm between 0.06 to 0.11 (0.5 McFarland standard), in a Multiskan SkyHigh spectrophotometer (ThermoFisher Scientific, Waltham, MA, USA). Amounts of 5 µL of the 1.50 × 10^8 CFU/mL suspension were added to each well (except for the blank) for a final well concentration of approximately 6 × 10^6 CFU/mL. The plate was incubated for 24 h at 37 °C (BE 500, Memmert GmbH, Büchenbach, Germany) and optical density was measured at 600 nm in a Multiskan SkyHigh spectrophotometer (ThermoFisher Scientific, Waltham, MI, USA). Following the measurement of optical density, plates were visually inspected to determine the MIC. Subsequently, 100 µL of the concentration associated to the MIC and 100 µL of the next higher concentration were added to Petri dishes containing Mueller-Hinton Agar. The dishes were then incubated for 24 h at 37 °C (BE 500, Memmert GmbH, Büchenbach, Germany). After incubation, the Petri dishes were visually inspected, and the MBC was determined in the absence of growth. IC50 values were interpolated from regressions with correlation values above 0.70. Growth inhibition percentages were calculated as follows: Growth inhibition %=1−AbsPEPTIDE or ANTIBIOTIC−Median AbsBLANK/Median AbsPBS−Median AbsBLANK×100

pIC50: −log10 of the molar value. Ends that are not written are not given here.

For WKKIKKFF-NH2 [PvAMP66], the MIC in assay [1] (1.56–200 µM, 24 h 37 °C, visual inspection) came to 100 µM; against E. coli ATCC® 25922 (1.56–200 µM, 24 h 37 °C, visual inspection, triplicate, three independent assays), 50 µM. The pIC50 in assay [1] (growth inhibition OD600, 95% confidence interval in parentheses) was 4.34; in the assay on E. coli ATCC® 25922 (growth inhibition OD600, interpolated from regression, 95% confidence interval in parentheses, read-out: IC50) it was 4.42. In addition, the MBC in the assay with E. coli ATCC® 25922 (plating on Mueller-Hinton agar, 24 h 37 °C, absence of growth) worked out at 50 µM.

By MIC is commonly meant the lowest concentration found to suppress growth. The pIC50 is the IC50 on a negative log10 scale, so that one unit is a factor of ten. Usually MBC stands for the lowest tested concentration that kills the bacteria rather than only halting them.
